Data as given in patent US9023865B2, “Compounds that are ERK inhibitors” (Merck Sharp & Dohme Corp., priority 2011, dated 2015).

Target: Active Human ERK2 (hERK2) (Homo sapiens (Human), UniProt P28482)
Experiment: Active Human ERK2 (hERK2) Activity Assay (IMAP-FP)
Assay type: biochemical
Details: phosphorylated active hERK2, 30 μM ATP; average; read-out: ERK 2 Human average IC50
Summary of the method: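 Phosphorylation by activated human ERK2 (0.5 nM) at 30 μM ATP, peptide substrate 900 nM unlabeled with 80 nM labeled, proceeds 60 min. IMAP beads stop the reaction; after 60 min equilibration, product is measured by fluorescence polarization.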

Sequence of Active Human ERK2 (hERK2) (P28482 whole entry): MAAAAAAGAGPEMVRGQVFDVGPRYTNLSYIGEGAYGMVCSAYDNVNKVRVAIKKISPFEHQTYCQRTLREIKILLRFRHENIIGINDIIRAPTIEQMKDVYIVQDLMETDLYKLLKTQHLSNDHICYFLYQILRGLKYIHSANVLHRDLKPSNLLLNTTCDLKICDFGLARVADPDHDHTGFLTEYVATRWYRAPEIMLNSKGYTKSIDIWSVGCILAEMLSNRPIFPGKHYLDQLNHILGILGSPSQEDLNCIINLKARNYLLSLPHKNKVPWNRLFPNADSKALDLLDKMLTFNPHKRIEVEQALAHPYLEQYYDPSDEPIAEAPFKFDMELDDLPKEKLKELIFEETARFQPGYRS

SMILES	IC50 [nM]
Cc1nocc1-c1n[nH]c2cc(NC(=O)N[C@H](C)c3ccc(F)cc3)ncc12 [Example 243]	86.8
Cc1cc(-c2n[nH]c3cc(NC(=O)N[C@H](C)C4CCC4)ncc23)ccn1 [Example 595]	3.46
COC(=O)C1CC1c1n[nH]c2cc(NC(=O)N[C@H](C)c3ccccc3)ncc12 (stereo partly drawn) [Example 643]	1.33
Cc1cc(-c2n[nH]c3cc(NC(=O)N[C@@H]4[C@H](CO)[C@H]5CC[C@@H]4O5)ncc23)ccn1 [Example 367]	4.51
C[C@@H](NC(=O)Nc1cc2[nH]nc(C(=O)NCC34CC5CC(C3)C(O)C(C5)C4)c2cn1)c1ccccc1 (stereo partly drawn) [Example 127]	14.7
CNC(=O)c1cc(F)ccc1CNC(=O)Nc1cc2[nH]nc(-c3ccnc(C)c3)c2cn1 [Example 518]	5.18
CCCCNC(=O)Nc1cc2[nH]nc(C3CC3)c2cn1 [Example 156]	42.2
Cc1cc(-c2n[nH]c3cc(NC(=O)N[C@H](COCC4CC4)c4ccccc4)ncc23)no1 [Example 699]	23.5
C[C@@H](NC(=O)Nc1cc2[nH]nc(CO)c2cn1)c1ccccc1 [Example 615]	6.16
Cc1cc(-c2n[nH]c3cc(NC(=O)N[C@H](CN)c4ccccc4)ncc23)ccn1 [Example 483]	0.152
Cc1cc(-c2n[nH]c3cc(NC(=O)N[C@@H]4CN[C@H](c5ccccc5)C4)ncc23)ccn1 [Example 405]	14.2
C[C@@H](NC(=O)Nc1cc2[nH]nc(CNCC(F)F)c2cn1)c1ccccc1 [Example 562]	25.3
COCC(C)NC(=O)Nc1cc2[nH]nc(-c3ccnc(C)c3)c2cn1 (stereo not drawn) [Example 202]	11.6
COC[C@@H](NC(=O)Nc1cc2[nH]nc(-c3ccnc(C#N)c3)c2cn1)c1ccc(F)cc1 [Example 304]	1.75
Cc1cc(-c2n[nH]c3cc(NC(=O)NC(C)c4nnco4)ncc23)ccn1 (stereo not drawn) [Example 556]	232
Cc1cc(-c2n[nH]c3cc(NC(=O)NC(C)c4ccno4)ncc23)ccn1 (stereo not drawn) [Example 497]	1.53
C[C@@H](NC(=O)Nc1cc2[nH]nc(C3CC3(F)F)c2cn1)c1ccccc1 (stereo partly drawn) [Example 164]	7.71
Cc1cc(-c2n[nH]c3cc(NC(=O)N[C@@H]4COC[C@H]4c4ccccc4)ncc23)ccn1 [Example 580]	0.193
Cc1cc(-c2n[nH]c3cc(NC(=O)N[C@H]4CCOC4=O)ncc23)ccn1 [Example 456]	253
Cc1cc(-c2n[nH]c3cc(NC(=O)NC4CCc5cccnc5C4)ncc23)ccn1 (stereo not drawn) [Example 505]	0.865
Cc1cc(-c2n[nH]c3c(F)c(NC(=O)N[C@H](C)c4ccc(Cl)cc4)ncc23)ccn1 [Example 534]	0.509
COC(C)CNC(=O)Nc1cc2[nH]nc(-c3ccnc(C)c3)c2cn1 (stereo not drawn) [Example 585]	1.26
COc1ncc(-c2n[nH]c3cc(NC(=O)N[C@H](C)c4ccccc4)ncc23)cn1 [Example 313]	0.717
COCCNC(=O)Nc1cc2[nH]nc(-c3ccnc(OC(C)C)c3)c2cn1 [Example 604]	16.1
C[C@@H](NC(=O)Nc1ncc2c(-c3ccnc(F)c3)n[nH]c2c1F)c1ccccc1 [Example 539]	0.728
Cc1cc(-c2n[nH]c3cc(NC(=O)NCc4nc5ccccc5[nH]4)ncc23)ccn1 [Example 408]	2
Cc1cc(-c2n[nH]c3cc(NC(=O)N[C@@H]4CN(C)C[C@H]4c4ccccc4C)ncc23)ccn1 [Example 215, 1-((3S,4R)-1-methyl-4-(o-tolyl)pyrrolidin-3-yl)-3-(3-(2-methylpyridin-4-yl)-1H-pyrazolo[4,3-c]pyridin-6-yl)urea]	0.537
CSC[C@@H](NC(=O)Nc1cc2[nH]nc(-c3ccnc(C)c3)c2cn1)c1ccccc1 [Example 570]	0.257
Cc1cc(-c2n[nH]c3cc(NC(=O)NC(C)c4ccc(F)c(F)c4)ncc23)ccn1 (stereo not drawn) [Example 338]	0.998
Cc1cc(-c2n[nH]c3cc(NC(=O)N[C@@H]4CCCc5ncccc54)ncc23)ccn1 [Example 261]	1.49
